Laboratory results: patent US10597388B2, “Pyridazinone herbicides” (FMC CORPORATION, priority 2014, dated 2020)

Tests used:
Format in all cases: in vivo
[1] = test system: sedge, umbrella (small-flower umbrella sedge, Cyperus difformis); test: Test B flooded paddy test; settings: 250 g ai/ha, Flood; visual rating on scale of 0 to 100 where 0 is no effect and 100 is complete control; 13 to 15 d after treatment
In short: (§1)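 Plants grown to the 2-leaf stage. At treatment, pots were flooded to 3 cm above the soil, compound was applied directly to the paddy water, and that depth was held throughout. After 13 to 15 d in the greenhouse, response was rated visually against controls on a 0 (no effect) to 100 (complete control) scale.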

[2] = test system: barnyardgrass (Echinochloa crus-galli); test: Test B flooded paddy test; settings: 250 g ai/ha, Flood; visual rating on scale of 0 to 100 where 0 is no effect and 100 is complete control; 13 to 15 d after treatment
In short: as §1

rice (Oryza sativa) = test: Test B flooded paddy test; settings: 250 g ai/ha, Flood; visual rating on scale of 0 to 100 where 0 is no effect and 100 is complete control; 13 to 15 d after treatment
In short: as §1

[3] = test system: ducksalad (Heteranthera limosa); test: Test B flooded paddy test; settings: 250 g ai/ha, Flood; visual rating on scale of 0 to 100 where 0 is no effect and 100 is complete control; 13 to 15 d after treatment
In short: as §1

[4] = test system: foxtail, giant (giant foxtail, Setaria faberii); test: Test A greenhouse herbicide test, pre- and postemergence; settings: for Foxtail, Giant plant response rating: 0 is no effect, 100 is complete control
In short: (§2)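 Seeds in loam–sand blend received a preemergence directed soil spray; plants at 2–10 cm, one- to two-leaf stage, received postemergence sprays. Compounds in a non-phytotoxic solvent with surfactant. After about 10 d in a greenhouse, injury rated visually versus untreated controls on a 0–100 scale (100 = complete control).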

corn (Zea mays) = test: as above; settings: Postemergence; for Corn plant response rating: 1000 g ai/ha, 0 is no effect, 100 is complete control
In short: as §2

[5] = test system: ryegrass, Italian (Italian ryegrass, Lolium multiflorum); test: as above; settings: for Ryegrass, Italian plant response rating: 0 is no effect, 100 is complete control
In short: as §2

[6] = test system: ragweed (common ragweed, Ambrosia elatior); test: as above; settings: for Ragweed plant response rating: 0 is no effect, 100 is complete control
In short: as §2

[7] = test system: barnyardgrass (Echinochloa crus-galli); test: as above; settings: for Barnyardgrass plant response rating: 0 is no effect, 100 is complete control
In short: as §2

[8] = test system: pigweed (Amaranthus retroflexus); test: as above; settings: for Pigweed plant response rating: 0 is no effect, 100 is complete control
In short: as §2

kochia (Kochia scoparia) = test: as above; settings: for Kochia plant response rating: 0 is no effect, 100 is complete control
In short: as §2

[9] = test system: wheat (Triticum aestivum); test: as above; settings: Postemergence; for Wheat plant response rating: 1000 g ai/ha, 0 is no effect, 100 is complete control
In short: as §2

[10] = test system: galium (catchweed bedstraw, Galium aparine); test: Test A greenhouse herbicide test, postemergence; settings: for Galium plant response rating: 1000 g ai/ha, 0 is no effect, 100 is complete control
In short: (§3)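 Pot-grown plants (loam soil/sand blend), 2–10 cm tall at the one- to two-leaf stage, received postemergence sprays of formulated test chemical. After about 10 d in the greenhouse, injury was rated visually against untreated controls on a 0 (no effect) to 100 (complete control) scale.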

[11] = test system: blackgrass (Alopecurus myosuroides); test: Test A greenhouse herbicide test, postemergence; settings: for Blackgrass plant response rating: 1000 g ai/ha, 0 is no effect, 100 is complete control
In short: as §3

[12] = Postemergence, 125 g ai/ha, 0 to 100 scale, 0 no effect, 100 complete control
[13] = Postemergence, 500 g ai/ha, visual rating after approx. 10 d, 0 to 100 scale (0 no effect, 100 complete control)
[14] = Preemergence, 125 g ai/ha, visual injury rating, 0 to 100 scale (0 no effect, 100 complete control), approx. 10 d
[15] = Preemergence, 500 g ai/ha, 0 to 100 scale where 0 is no effect and 100 is complete control
[16] = 125 g ai/ha, 0 to 100 scale, 0 no effect, 100 complete control
[17] = 500 g ai/ha, visual rating after approx. 10 d, 0 to 100 scale (0 no effect, 100 complete control)
[18] = Postemergence, 1000 g ai/ha, 0 to 100 scale
[19] = Preemergence, 1000 g ai/ha, 0 to 100 scale, 0 no effect, 100 complete control

Cc1n[nH]c(=O)c(-c2cccc3ccccc23)c1OC(F)F [Compound 175]
Plant response rating, Sedge, Umbrella [1]: 0 | Plant response rating, Barnyardgrass [2]: 0 | Plant response rating, Rice (rice (Oryza sativa)): 0 | Plant response rating, Ducksalad [3]: 0 | Plant response rating, Foxtail, Giant [4, 12]: 0 | Plant response rating, Foxtail, Giant [4, 13]: 0 | Plant response rating, Foxtail, Giant [4, 14]: 0 | Plant response rating, Foxtail, Giant [4, 15]: 0 | Plant response rating, Corn (corn (Zea mays); [16]): 0 | Plant response rating, Corn (corn (Zea mays); [17]): 20 | Plant response rating, Ryegrass, Italian [5, 12]: 20 | Plant response rating, Ryegrass, Italian [5, 13]: 30 | Plant response rating, Ryegrass, Italian [5, 14]: 20 | Plant response rating, Ryegrass, Italian [5, 15]: 20 | Plant response rating, Ragweed [6, 12]: 0 | Plant response rating, Ragweed [6, 13]: 0 | Plant response rating, Ragweed [6, 14]: 0 | Plant response rating, Ragweed [6, 15]: 20 | Plant response rating, Barnyardgrass [7, 12]: 0 | Plant response rating, Barnyardgrass [7, 13]: 0 | Plant response rating, Barnyardgrass [7, 14]: 0 | Plant response rating, Barnyardgrass [7, 15]: 0 | Plant response rating, Pigweed [8, 12]: 0 | Plant response rating, Pigweed [8, 13]: 0 | Plant response rating, Pigweed [8, 14]: 0 | Plant response rating, Pigweed [8, 15]: 60 | Plant response rating, Kochia (kochia (Kochia scoparia); [12]): 0 | Plant response rating, Kochia (kochia (Kochia scoparia); [13]): 0 | Plant response rating, Kochia (kochia (Kochia scoparia); [14]): 0 | Plant response rating, Kochia (kochia (Kochia scoparia); [15]): 20 | Plant response rating, Wheat [9, 16]: 0 | Plant response rating, Wheat [9, 17]: 20 | Plant response rating, Galium [10, 16]: 0 | Plant response rating, Galium [10, 17]: 0 | Plant response rating, Blackgrass [11, 16]: 0 | Plant response rating, Blackgrass [11, 17]: 20

Cc1ccc2ccccc2c1-c1c(O)c([N+](=O)[O-])nn(C)c1=O [Compound 177]
Plant response rating, Sedge, Umbrella [1]: 0 | Plant response rating, Barnyardgrass [2]: 0 | Plant response rating, Rice (rice (Oryza sativa)): 0 | Plant response rating, Ducksalad [3]: 0 | Plant response rating, Foxtail, Giant [4, 12]: 0 | Plant response rating, Foxtail, Giant [4, 13]: 0 | Plant response rating, Foxtail, Giant [4, 14]: 0 | Plant response rating, Foxtail, Giant [4, 15]: 0 | Plant response rating, Corn (corn (Zea mays); [16]): 0 | Plant response rating, Corn (corn (Zea mays); [17]): 0 | Plant response rating, Ryegrass, Italian [5, 12]: 0 | Plant response rating, Ryegrass, Italian [5, 13]: 0 | Plant response rating, Ryegrass, Italian [5, 14]: 0 | Plant response rating, Ryegrass, Italian [5, 15]: 0 | Plant response rating, Ragweed [6, 12]: 0 | Plant response rating, Ragweed [6, 13]: 0 | Plant response rating, Ragweed [6, 14]: 0 | Plant response rating, Ragweed [6, 15]: 0 | Plant response rating, Barnyardgrass [7, 12]: 0 | Plant response rating, Barnyardgrass [7, 13]: 0 | Plant response rating, Barnyardgrass [7, 14]: 0 | Plant response rating, Barnyardgrass [7, 15]: 0 | Plant response rating, Pigweed [8, 12]: 0 | Plant response rating, Pigweed [8, 13]: 0 | Plant response rating, Pigweed [8, 14]: 0 | Plant response rating, Pigweed [8, 15]: 0 | Plant response rating, Kochia (kochia (Kochia scoparia); [12]): 0 | Plant response rating, Kochia (kochia (Kochia scoparia); [13]): 0 | Plant response rating, Kochia (kochia (Kochia scoparia); [14]): 0 | Plant response rating, Kochia (kochia (Kochia scoparia); [15]): 0 | Plant response rating, Wheat [9, 16]: 0 | Plant response rating, Wheat [9, 17]: 0 | Plant response rating, Galium [10, 16]: 0 | Plant response rating, Galium [10, 17]: 0 | Plant response rating, Blackgrass [11, 16]: 0 | Plant response rating, Blackgrass [11, 17]: 0

Cc1nn(C)c(=O)c(-c2cccc3ccccc23)c1OCC=Cc1ccccc1 [Compound 180]
Plant response rating, Sedge, Umbrella [1]: 0 | Plant response rating, Barnyardgrass [2]: 0 | Plant response rating, Rice (rice (Oryza sativa)): 0 | Plant response rating, Ducksalad [3]: 0 | Foxtail, Giant plant response rating [4, 18]: 0 | Plant response rating, Foxtail, Giant [4, 19]: 10 | Corn plant response rating (corn (Zea mays); 0 to 100 scale): 0 | Ryegrass, Italian plant response rating [5, 18]: 70 | Plant response rating, Ryegrass, Italian [5, 19]: 50 | Ragweed plant response rating [6, 18]: 0 | Plant response rating, Ragweed [6, 19]: 40 | Barnyardgrass plant response rating [7, 18]: 0 | Plant response rating, Barnyardgrass [7, 19]: 0 | Pigweed plant response rating [8, 18]: 50 | Plant response rating, Pigweed [8, 19]: 40 | Kochia plant response rating (kochia (Kochia scoparia); [18]): 40 | Plant response rating, Kochia (kochia (Kochia scoparia); [19]): 0 | Wheat plant response rating ([9]; 0 to 100 scale): 0 | Galium plant response rating ([10]; 0 to 100 scale): 80 | Blackgrass plant response rating ([11]; 0 to 100 scale): 30

Cc1nn(C)c(=O)c(-c2cccc3ccccc23)c1OC(=O)C=Cc1ccccc1 [Compound 183]
Plant response rating, Sedge, Umbrella [1]: 0 | Plant response rating, Barnyardgrass [2]: 0 | Plant response rating, Rice (rice (Oryza sativa)): 0 | Plant response rating, Ducksalad [3]: 0 | Foxtail, Giant plant response rating [4, 18]: 70 | Plant response rating, Foxtail, Giant [4, 19]: 60 | Corn plant response rating (corn (Zea mays); 0 to 100 scale): 10 | Ryegrass, Italian plant response rating [5, 18]: 100 | Plant response rating, Ryegrass, Italian [5, 19]: 90 | Ragweed plant response rating [6, 18]: 70 | Plant response rating, Ragweed [6, 19]: 80 | Barnyardgrass plant response rating [7, 18]: 40 | Plant response rating, Barnyardgrass [7, 19]: 40 | Pigweed plant response rating [8, 18]: 90 | Plant response rating, Pigweed [8, 19]: 90 | Kochia plant response rating (kochia (Kochia scoparia); [18]): 90 | Plant response rating, Kochia (kochia (Kochia scoparia); [19]): 70 | Wheat plant response rating ([9]; 0 to 100 scale): 0 | Galium plant response rating ([10]; 0 to 100 scale): 90 | Blackgrass plant response rating ([11]; 0 to 100 scale): 80

Cc1nn(C)c(=O)c(-c2cccc3ccccc23)c1OCC(=O)c1ccccc1 [Compound 184]
Plant response rating, Sedge, Umbrella [1]: 0 | Plant response rating, Barnyardgrass [2]: 0 | Plant response rating, Rice (rice (Oryza sativa)): 0 | Plant response rating, Ducksalad [3]: 0 | Foxtail, Giant plant response rating [4, 18]: 20 | Plant response rating, Foxtail, Giant [4, 19]: 30 | Corn plant response rating (corn (Zea mays); 0 to 100 scale): 0 | Ryegrass, Italian plant response rating [5, 18]: 80 | Plant response rating, Ryegrass, Italian [5, 19]: 90 | Ragweed plant response rating [6, 18]: 30 | Plant response rating, Ragweed [6, 19]: 70 | Barnyardgrass plant response rating [7, 18]: 20 | Plant response rating, Barnyardgrass [7, 19]: 10 | Pigweed plant response rating [8, 18]: 80 | Plant response rating, Pigweed [8, 19]: 90 | Kochia plant response rating (kochia (Kochia scoparia); [18]): 80 | Plant response rating, Kochia (kochia (Kochia scoparia); [19]): 20 | Wheat plant response rating ([9]; 0 to 100 scale): 0 | Galium plant response rating ([10]; 0 to 100 scale): 90 | Blackgrass plant response rating ([11]; 0 to 100 scale): 30
